Laboratory results from patent US20030220300A1, “Reduction of hair growth” (priority 2002, published 2003).

Key:
[1] = test system: Human hair follicles in growth phase (anagen); experiment: Human hair follicle growth assay; type: cell-based; conditions: for % Reduction of human hair follicle growth / Hair follicle length increase (mm) Treated: day 0 to day 7 (Table II)
Text: Human Hair Follicle Growth Assay
Tissue source—Human skin was obtained from a plastic surgeon as a by-product of face-lift procedures. Immediately after removal, the skin was placed in Williams E medium containing antibiotics and refrigerated. The Williams E medium is a commercially obtained medium which has been formulated with essential nutrients for maintaining viability of tissues or cells such as of hair follicle in an in-vitro environment.
Hair Follicle Isolation and Culture—Human hair follicles in growth phase (anagen) were isolated from face-lift tissue (obtained from plastic surgeons) under dissecting scope using a scalpel and watchmakers forceps. The skin was sliced into thin strips exposing 2-3 rows of follicles that could readily be dissected. Follicles were placed into 0.5 ml William's E medium (Life Technologies, Gaithersburg, Md.) supplemented with 2 mM L-glutamine, 10 μg/ml insulin, 10 ng/ml hydrocortisone, 100 units of penicillin, 0.1 mg/ml streptomycin and 0.25 μg/ml amphotericin B. The follicles were incubated in 24-well plates (1 follicle/well) at 37° C. in an atmosphere of 5% CO2 and 95% air. Thiazolidinediones are dissolved into dimethyl sulfoxide as 100-fold stock solution. The control hair follicles were treated with dimethyl sulfoxide without thiazolidinedione. The follicles were photographed in the 24-well plates under the dissecting scope at a power of 10×. Typically, image recordings were made on day 0 (day follicles were placed in culture), and again on day 7. The length of Hair follicle was assessed using an image analysis software system (Jasc Image Robot). The growth of hair fiber was calculated by the subtracting the follicle length on day 0 from that determined on day 7.

[2] = test system: Golden Syrian hamster flank organs (hair growth); experiment: Golden Syrian hamster assay (hair mass assay); type: in vivo; conditions: topical, three weeks
Text: Golden Syrian Hamster Assay
Male intact Golden Syrian hamsters are considered acceptable models for human beard hair growth in that they display oval shaped flank organs, one on each side, each about 8 mm. in major diameter. These organs produce fine light colored hair typical of the animal pelage found on the body. In response to androgens the flank organs produce dark coarse hair similar to male human beard hair. To evaluate the effectiveness of a composition in reducing hair growth, the flank organs of each of a group of hamsters are depilated by applying a thioglycolate based chemical depilatory (Surgex) and/or shaved. To one organ of each animal 10 μl. of vehicle alone once a day is applied, while to the other organ of each animal an equal amount of vehicle containing the ligand under evaluation is applied. After three weeks of topical applications (one application per day for five days a week), the flank organs are shaved and the amount of recovered hair (hair mass) from each is weighed. Percent-reduction of hair growth is calculated by subtracting the hair mass (mg) value of the test compound treated side from the hair mass value of the vehicle treated side; the delta value obtained is then divided by the hair mass value of the vehicle treated side, and the resultant number is multiplied by 100.
The above-described assay will be referred to herein as the “Golden Syrian hamster” assay or “hair mass” assay. Preferred compositions provide a reduction in hair growth of at least about 15% and more preferably at least about 35%, when tested in the Golden Syrian hamster assay.

O=C1NC(=S)SC1=Cc1cc([N+](=O)[O-])ccc1Sc1ccccc1 [5-(5-nitro-2-phenylsulfanyl-benzylidene)-2-thioxo-thiazolidin-4-one]
% Reduction ([1]; 0.1 μM (Table VI)): 66.9 ± 15.2%
Hair follicle length increase (mm) ([1]; 0.1 μM (Table VI)): 0.37 ± 0.17 mm
% Reduction ([1]; 0.5 μM (Table VI)): 85.7 ± 15.2%
Hair follicle length increase (mm) ([1]; 0.5 μM (Table VI)): 0.16 ± 0.17 mm
% Reduction ([1]; 1.0 μM (Table VI)): 93.7 ± 7.1%
Hair follicle length increase (mm) ([1]; 1.0 μM (Table VI)): 0.07 ± 0.08 mm
% Reduction of human hair follicle growth ([1]; 10 μM): 94.6 ± 3.9%
Hair follicle length increase (mm) Treated ([1]; 10 μM): 0.11 ± 0.08 mm
Effect on human hair growth (in words) ([1]; human hair follicle growth assay, summary of Table II): can reduce human hair growth

CCc1ccc(CCOc2ccc(CC3SC(=O)NC3=O)cc2)nc1 (centres unmarked) [Pioglitazone, pioglitazone]
% Reduction of hamster hair mass ([2]; dose 5%, vehicle B): 47.7 ± 4.1%
Treated (mg) hair mass ([2]; dose 5%, vehicle B): 1.32 ± 0.06 mg
% Reduction of hamster hair mass ([2]; dose 5%, vehicle B, listed as pioglitazone): 47.7%
% Reduction ([1]; 15 μM (Table IV)): 30.2 ± 19.8%
Hair follicle length increase (mm) ([1]; 15 μM (Table IV)): 0.67 ± 0.19 mm
% Reduction ([1]; 30 μM (Table IV)): 76.0 ± 16.7%
Hair follicle length increase (mm) ([1]; 30 μM (Table IV)): 0.23 ± 0.16 mm
% Reduction ([1]; 45 μM (Table IV)): 89.6 ± 14.6%
Hair follicle length increase (mm) ([1]; 45 μM (Table IV)): 0.1 ± 0.14 mm
% Reduction of human hair follicle growth ([1]; 50 μM): 86.7 ± 6.2%
Hair follicle length increase (mm) Treated ([1]; 50 μM): 0.15 ± 0.07 mm

CC1(COc2ccc(CC3SC(=O)NC3=O)cc2)CCCCC1 (centres unmarked) [Ciglitazone, ciglitazone]
% Reduction of hamster hair mass ([2]; dose 1.3%, vehicle A): 22.7 ± 5.8%
Treated (mg) hair mass ([2]; dose 1.3%, vehicle A): 2.78 ± 0.23 mg
% Reduction of hamster hair mass ([2]; dose 1.3%, vehicle A, listed as ciglitazone): 22.7%
% Reduction ([1]; 3 μM (Table III)): 38.2 ± 23.0%
Hair follicle length increase (mm) ([1]; 3 μM (Table III)): 1.34 ± 0.5 mm
% Reduction ([1]; 6 μM (Table III)): 75.1 ± 13.8%
Hair follicle length increase (mm) ([1]; 6 μM (Table III)): 0.54 ± 0.3 mm
% Reduction ([1]; 9 μM (Table III)): 90.8 ± 9.2%
Hair follicle length increase (mm) ([1]; 9 μM (Table III)): 0.2 ± 0.2 mm
% Reduction of human hair follicle growth ([1]; 20 μM): 87.5 ± 15.6%
Hair follicle length increase (mm) Treated ([1]; 20 μM): 0.19 ± 0.24 mm

CN(CCOc1ccc(CC2SC(=O)NC2=O)cc1)c1ccccn1 (centres unmarked) [Rosiglitazone, rosiglitazone]
% Reduction of hamster hair mass ([2]; dose 10%, vehicle A): 40.0 ± 5.0%
Treated (mg) hair mass ([2]; dose 10%, vehicle A): 1.78 ± 0.71 mg
% Reduction of hamster hair mass ([2]; dose 10%, vehicle A, listed as rosiglitazone): 40%
% Reduction ([1]; 20 μM (Table V)): 34.8 ± 20.6%
Hair follicle length increase (mm) ([1]; 20 μM (Table V)): 0.92 ± 0.29 mm
% Reduction ([1]; 40 μM (Table V)): 47.5 ± 10.6%
Hair follicle length increase (mm) ([1]; 40 μM (Table V)): 0.74 ± 0.15 mm
% Reduction ([1]; 60 μM (Table V)): 63.1 ± 14.1%
Hair follicle length increase (mm) ([1]; 60 μM (Table V)): 0.52 ± 0.2 mm
% Reduction of human hair follicle growth ([1]; 100 μM): 75.2 ± 16.5%
Hair follicle length increase (mm) Treated ([1]; 100 μM): 0.24 ± 0.16 mm

Cc1c(C)c2c(c(C)c1O)CCC(C)(COc1ccc(CC3SC(=O)NC3=O)cc1)O2 (centres unmarked) [Troglitazone, troglitazone]
% Reduction of human hair follicle growth ([1]; 100 μM): 91.5 ± 6.2%
Hair follicle length increase (mm) Treated ([1]; 100 μM): 0.11 ± 0.08 mm
